Laboratory results as given in ChEMBL document CHEMBL1201862, “PubChem BioAssay data set” (2004).
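Where inhibition never reached the appropriate level, the endpoint shown equals the highest concentration tested. Otherwise, values were interpolated linearly from a five-concentration, 48-hour dose response in 96-well plates. GI50 is the concentration that inhibits growth by half.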 Active and inactive are the calls of the source. No stated cut-off is given here; in the data, active = GI50 up to about 1.1 µM and inactive = higher.

How the values were obtained:
Assay in all cases: NCI tumour cell line growth inhibition, 48 h
A498 = test system: A498
DU-145 = test system: DU-145
EKVX = test system: EKVX
HL-60 = test system: HL-60
HOP-62 = test system: HOP-62
HT-29 = test system: HT-29
Hs-578T = test system: Hs-578T
IGROV-1 = test system: IGROV-1
M14 = test system: M14
MDA-MB-231 = test system: MDA-MB-231
NCI-H23 = test system: NCI-H23
NCI-H522 = test system: NCI-H522
OVCAR-3 = test system: OVCAR-3
PC-3 = test system: PC-3
SK-OV-3 = test system: SK-OV-3
SNB-19 = test system: SNB-19
HCC 2998 = test system: HCC 2998
NCI-H460 = test system: NCI-H460
UACC-257 = test system: UACC-257

Compound	GI50 (A498)	GI50 (DU-145)	GI50 (EKVX)	GI50 (HL-60)	GI50 (HOP-62)	GI50 (HT-29)	GI50 (Hs-578T)	GI50 (IGROV-1)	GI50 (M14)	GI50 (MDA-MB-231)	GI50 (NCI-H23)	GI50 (NCI-H522)	GI50 (OVCAR-3)	GI50 (PC-3)	GI50 (SK-OV-3)	GI50 (SNB-19)	GI50 (HCC 2998)	GI50 (NCI-H460)	GI50 (UACC-257)
NS(=O)(=O)c1ccc(C(=O)O)cc1 [CARZENIDE]	> 100 µM (inactive)	> 100 µM (inactive)	> 100 µM (inactive)	> 100 µM (inactive)	> 100 µM (inactive)	> 100 µM (inactive)	> 100 µM (inactive)	> 100 µM (inactive)	> 100 µM (inactive)	> 100 µM (inactive)	> 100 µM (inactive)	> 100 µM (inactive)	> 100 µM (inactive)	> 100 µM (inactive)	> 100 µM (inactive)	> 100 µM (inactive)			
O=P1(N(CCCl)CCCl)Oc2ccc(Cl)cc2Sc2c(ccc(Cl)c2Cl)O1 (stereo not given)	22.2 µM (inactive)	63.7 µM (inactive)	8.57 µM (inactive)	4.1 µM (inactive)	16 µM (inactive)	7.29 µM (inactive)	2.13 µM (inactive)		17.8 µM (inactive)	12.3 µM (inactive)	4.27 µM (inactive)	6.4 µM (inactive)	4.95 µM (inactive)	3.28 µM (inactive)	21.9 µM (inactive)		16.5 µM (inactive)	4.79 µM (inactive)	10.4 µM (inactive)
CCCCCCCCNC(=O)C1=C(C)NC(C)=C(C(=O)NCCCCCCCC)C1		> 100 µM (inactive)	> 100 µM (inactive)	> 100 µM (inactive)	> 100 µM (inactive)	82.8 µM (inactive)	> 100 µM (inactive)	> 100 µM (inactive)	> 100 µM (inactive)	69.3 µM (inactive)	> 100 µM (inactive)	> 100 µM (inactive)	> 100 µM (inactive)	80 µM (inactive)	> 100 µM (inactive)	> 100 µM (inactive)	> 100 µM (inactive)	> 100 µM (inactive)	> 100 µM (inactive)
COc1cc(C(=O)Oc2ccc3c(c2)OCO3)cc(OC)c1OC	> 100 µM (inactive)	> 100 µM (inactive)		> 100 µM (inactive)	> 100 µM (inactive)	> 100 µM (inactive)	> 100 µM (inactive)	> 100 µM (inactive)	> 100 µM (inactive)	> 100 µM (inactive)	> 100 µM (inactive)	> 100 µM (inactive)	> 100 µM (inactive)	> 100 µM (inactive)	> 100 µM (inactive)	> 100 µM (inactive)	> 100 µM (inactive)	> 100 µM (inactive)	> 100 µM (inactive)
SC1=NC2=C(CSC/C2=C\c2ccc(Cl)cc2)C(c2ccc(Cl)cc2)N1 (stereo not given)		39.4 µM (inactive)	38 µM (inactive)	24.7 µM (inactive)	36 µM (inactive)	29.6 µM (inactive)	45.3 µM (inactive)	51.8 µM (inactive)		35.2 µM (inactive)	46.9 µM (inactive)	42.8 µM (inactive)	41.2 µM (inactive)	31.3 µM (inactive)	55.8 µM (inactive)	44.3 µM (inactive)	25.4 µM (inactive)	31.4 µM (inactive)	32 µM (inactive)
Nc1ncnc2c1cnn2COCC(O)CO (stereo not given)	> 100 µM (inactive)	> 100 µM (inactive)	> 100 µM (inactive)		> 100 µM (inactive)	> 100 µM (inactive)	> 100 µM (inactive)	> 100 µM (inactive)	> 100 µM (inactive)	> 100 µM (inactive)	> 100 µM (inactive)	> 100 µM (inactive)	> 100 µM (inactive)	> 100 µM (inactive)	> 100 µM (inactive)	> 100 µM (inactive)	> 100 µM (inactive)	> 100 µM (inactive)	> 100 µM (inactive)
Cc1cccc(NC(=S)NNC(=O)c2cc(-c3ccccc3)nc3ccccc23)c1	20.2 µM (inactive)	34.4 µM (inactive)			32 µM (inactive)	34.7 µM (inactive)	37 µM (inactive)	33.6 µM (inactive)	35 µM (inactive)	27.9 µM (inactive)	27.9 µM (inactive)	26.2 µM (inactive)	26.8 µM (inactive)	27.5 µM (inactive)	25.6 µM (inactive)	37.8 µM (inactive)	25.1 µM (inactive)	30.9 µM (inactive)	33.4 µM (inactive)
C=C(C)C12OC1[C@@]1(C)C(=CC2=O)CCC(O)[C@@H]1C (stereo not given in full)	5.19 µM (inactive)	1.05 µM (active)	1.94 µM (inactive)	1.16 µM (inactive)	1.4 µM (inactive)	1.21 µM (inactive)	1.75 µM (inactive)	0.891 µM (active)	3.72 µM (inactive)	1.52 µM (inactive)	2.26 µM (inactive)	0.782 µM (active)	3.68 µM (inactive)	2.65 µM (inactive)		1.69 µM (inactive)	0.718 µM (active)	0.743 µM (active)	3.34 µM (inactive)
COc1ccc(/N=N/C(=N\c2ccc(F)cc2)c2ccc(N(CCC#N)CCC#N)cc2)cc1	21.4 µM (inactive)	33 µM (inactive)	34.4 µM (inactive)		41.8 µM (inactive)	39.5 µM (inactive)	27.4 µM (inactive)	19.9 µM (inactive)	28.6 µM (inactive)	14.3 µM (inactive)	17.4 µM (inactive)	20 µM (inactive)	30.9 µM (inactive)	24.1 µM (inactive)	58.5 µM (inactive)	31.9 µM (inactive)	19.1 µM (inactive)	20.2 µM (inactive)	19 µM (inactive)
OCCOCCN1CCN(CCCN2c3ccccc3Sc3ccc(C(F)(F)F)cc32)CC1	10.5 µM (inactive)	14.2 µM (inactive)	14.8 µM (inactive)		17.6 µM (inactive)	2.33 µM (inactive)	11.9 µM (inactive)	9.84 µM (inactive)	2.65 µM (inactive)	11.1 µM (inactive)	16.4 µM (inactive)	14.7 µM (inactive)	17.7 µM (inactive)	15.6 µM (inactive)	19.5 µM (inactive)	14.4 µM (inactive)	2.78 µM (inactive)	9.95 µM (inactive)	5.15 µM (inactive)
COC(=O)Cc1cc2c(cc1C(=O)c1ccc(N)cc1)OCO2		4.11 µM (inactive)	4.03 µM (inactive)	2.36 µM (inactive)	3.84 µM (inactive)	1.09 µM (active)	2.26 µM (inactive)	0.625 µM (active)	1.64 µM (inactive)	3.42 µM (inactive)	5.68 µM (inactive)	0.228 µM (active)	0.755 µM (active)	1.73 µM (inactive)	2.94 µM (inactive)	8.83 µM (inactive)	0.78 µM (active)	12.2 µM (inactive)	
O=C1CSC(c2ccccc2O)N1c1ccc(-c2ccc(-n3c(-c4ccccc4)nc4ccccc4c3=O)cc2)cc1 (stereo not given)	70 µM (inactive)	49 µM (inactive)	37.4 µM (inactive)	23.4 µM (inactive)	39.6 µM (inactive)	13.3 µM (inactive)	40.1 µM (inactive)	15.3 µM (inactive)	38.5 µM (inactive)	36.9 µM (inactive)	43.9 µM (inactive)	19.2 µM (inactive)	34.8 µM (inactive)	27.7 µM (inactive)	64.1 µM (inactive)	50.6 µM (inactive)		35.7 µM (inactive)	50.1 µM (inactive)
